Consider 15 compounds from ChEMBL document CHEMBL5241058, “Pyrazole-based analogs as potential antibacterial agents against methicillin-resistance staphylococcus aureus (MRSA) and its SAR elucidation” (Eur J Med Chem, 2021).

pIC50: −log10 of the molar value. In brackets after ≈: the same amount, converted by molar mass. Bounds are passed on as bounds.

The test system of assay [1] is Staphylococcus aureus. As to the kind of experiment: Antimicrobial activity against Methicillin-resistant Staphylococcus aureus ATCC 700699 assessed as bacterial growth inhibition incubated for 20 to 24 hrs by microdilution method. Type of assay: functional. The following applies: time 20-24 hrs.
For assay [2], the system named is Staphylococcus aureus. As to the kind of experiment: Antimicrobial activity against Methicillin-resistant Staphylococcus aureus ATCC 33591 assessed as bacterial growth inhibition incubated for 20 to 24 hrs by microdilution method. Type of assay: functional. The following applies: time 20-24 hrs.
The test system of assay [3] is Staphylococcus aureus. As to the kind of experiment: Antimicrobial activity against Methicillin-resistant Staphylococcus aureus assessed as bacterial growth inhibition by disc diffusion method. Type of assay: functional. Background: Agar diffusion results depend on both activity and mobility in agar.
The test system of assay [4] is Staphylococcus aureus. As to the kind of experiment: Antimicrobial activity against Methicillin-resistant Staphylococcus aureus ATCC 43300 assessed as bacterial growth inhibition. Type of assay: functional.
The subject of assay [5] is Staphylococcus aureus. As to the kind of experiment: Antimicrobial activity against Staphylococcus aureus LysRs assessed as bacterial growth inhibition by microdilution method. Type of assay: functional, organism-based.
Assay [6] deals with Staphylococcus aureus. As to the kind of experiment: Antimicrobial activity against Methicillin-resistant Staphylococcus aureus BFSA25 assessed as bacterial growth inhibition by microdilution method. The format is functional. The following applies: BFA25. Background: Broth dilution looks for growth in wells or tubes with falling amounts of substance.
Assay [7] relates to Staphylococcus aureus. As to the kind of experiment: Antimicrobial activity against Methicillin-resistant Staphylococcus aureus BFSA30 assessed as bacterial growth inhibition by microdilution method. Type of assay: functional. The following applies: BFA30.
Assay [8] has as its system Staphylococcus aureus. As to the kind of experiment: Antimicrobial activity against Methicillin-resistant Staphylococcus aureus BFSA31 assessed as bacterial growth inhibition by microdilution method. The format is functional. The following applies: BFA31.
Assay [9] deals with Staphylococcus aureus. As to the kind of experiment: Antimicrobial activity against Methicillin-resistant Staphylococcus aureus BFSA32 assessed as bacterial growth inhibition by microdilution method. The settings on record: BFA32. Type of assay: functional.
For assay [10], the system named is Staphylococcus aureus. As to the kind of experiment: Antimicrobial activity against Methicillin-resistant Staphylococcus aureus BFSA33 assessed as bacterial growth inhibition by microdilution method. The format is functional. The settings on record: BFA33.
Assay [11] has as its system Staphylococcus aureus. As to the kind of experiment: Antimicrobial activity against Methicillin-resistant Staphylococcus aureus BFSA48 assessed as bacterial growth inhibition by microdilution method. The format is functional. The following applies: BFA48.
For assay [12], the system named is Staphylococcus aureus. As to the kind of experiment: Antimicrobial activity against Methicillin-resistant Staphylococcus aureus ATCC 3167 assessed as bacterial growth inhibition. The format is functional.
Assay [13] deals with Staphylococcus aureus. As to the kind of experiment: Antimicrobial activity against Methicillin sensitive Staphylococcus aureus assessed as bacterial growth inhibition incubated for 18 hrs. The format is functional.
The test system of assay [14] is Staphylococcus aureus. As to the kind of experiment: Antimicrobial activity against Methicillin-resistant Staphylococcus aureus assessed as bacterial growth inhibition by microtiter dilution plate method. Type of assay: functional.
The test system of assay [15] is Staphylococcus aureus. As to the kind of experiment: Antimicrobial activity against Methicillin-resistant Staphylococcus aureus assessed as bacterial growth inhibition by agar well diffusion method. The format is functional.
The test system of assay [16] is Staphylococcus aureus. As to the kind of experiment: Antimicrobial activity against Methicillin-resistant Staphylococcus aureus assessed as bacterial growth inhibition incubated for 24 hrs. The format is functional.
The test system of assay [17] is Staphylococcus aureus. As to the kind of experiment: Antimicrobial activity against Methicillin-sensitive Staphylococcus aureus ATCC 33591 assessed as bacterial growth inhibition by microbroth serial dilution method. The format is functional.
The test system of assay [18] is Staphylococcus aureus. As to the kind of experiment: Antimicrobial activity against Methicillin-sensitive Staphylococcus aureus ATCC 43300 assessed as bacterial growth inhibition by microbroth serial dilution method. The format is functional.
Assay [19] concerns Staphylococcus aureus. As to the kind of experiment: Antimicrobial activity against Methicillin-sensitive Staphylococcus aureus ATCC 33591 assessed as bacterial growth inhibition incubated for 24 hrs. The format is functional.
In assay [20] the test system is Staphylococcus aureus. As to the kind of experiment: Antimicrobial activity against Methicillin-sensitive Staphylococcus aureus ATCC 43300 assessed as bacterial growth inhibition incubated for 24 hrs. Type of assay: functional. The following applies: ATCC43300.
Assay [21] relates to Staphylococcus aureus. As to the kind of experiment: Antimicrobial activity against Methicillin-resistant Staphylococcus aureus ATCC 33592 assessed as bacterial growth inhibition incubated for 20 to 24 hrs by microdilution assay. The format is functional. The settings on record: time 20-24 hrs.

Regarding `O=C(O)c1ccc(-n2cc(/C=N/Nc3ccc([N+](=O)[O-])cc3)c(-c3cccc(F)c3)n2)cc1`, the MIC (as a rule, the smallest concentration in the dilution series that meets the test's criterion for growth inhibition) with Staphylococcus aureus [1] came to 0.78 µg/mL (≈ 1.75 µM). Turning to `O=C(O)c1ccc(-n2cc(/C=N/Nc3ccc(Cl)cc3Cl)c(-c3cccc(F)c3)n2)cc1`, in the assay with Staphylococcus aureus [2], the MIC amounted to 0.39 µg/mL (≈ 0.831 µM). Regarding `COc1ccc(Nc2n[nH]c(/N=C\c3ccccc3)c2C(=O)Nc2ccc(C)cc2)cc1`, in the assay on Staphylococcus aureus [3], the MIC was determined as 15.6 µg/mL (≈ 36.7 µM). On to `CC(C)(C)c1cc(NC(=O)c2cccc(F)c2)n(-c2ccc(Cl)cc2)n1`, for which, in the assay with Staphylococcus aureus [4], the MIC worked out at 3.12 µg/mL (≈ 8.39 µM). `CCc1c2[nH]c(=O)[nH]c(=O)c2nn1CC1CCC1`: the pIC50 – broadly, the negative decadic logarithm of the IC50, by convention in mol/L – in the assay with Staphylococcus aureus [5] is 4.66.

In the case of `Cc1onc(-c2ccccc2)c1C(=O)N[C@@H]1C(=O)N2[C@@H]1SC(C)(C)[C@@H]2C(=O)O` [OXACILLIN], the MIC in the assay with Staphylococcus aureus [6], with Staphylococcus aureus [7], with Staphylococcus aureus [8], in the assay on Staphylococcus aureus [9], in the assay with Staphylococcus aureus [10] and in the assay on Staphylococcus aureus [11] was over 32 µg/mL each time. Also, in the assay on Staphylococcus aureus [12], the MIC worked out at 64 µM (≈ 25.7 µg/mL). Regarding `COc1c(N2CCNC(C)C2)c(F)cc2c(=O)c(C(=O)O)cn(C3CC3)c12` (configuration not stated) [GATIFLOXACIN], the MIC in the assay on Staphylococcus aureus [13] is 0.06 µg/mL (≈ 0.16 µM).

`c1ccc(-c2cnn3c4c(cnc23)CCCCCC4)cc1`: the MIC in the assay with Staphylococcus aureus [14] turned out to be 9 µg/mL. Besides, in the assay with Staphylococcus aureus [15], the “inhibition zone (IZ)” value is given as 50 mm. Regarding `Cc1nn(-c2ccccc2)c(Cl)c1/C=C(\Br)C(=O)C1C(=O)N(C)C(=O)N(C)C1=O`, the MIC with Staphylococcus aureus [16] came to 25 µg/mL (≈ 52.1 µM). For `CC(=O)NC[C@H]1CN(c2ccc(N3CCOCC3)c(F)c2)C(=O)O1` [LINEZOLID], the MIC in the assay on Staphylococcus aureus [17] was determined as 2.6 µM; with Staphylococcus aureus [17] (Staphylococcus aureus, ATCC 33591, read-out: MIC), 5.2 µM; in the assay with Staphylococcus aureus [18] it was 2.6 µM. For the same compound, the MBC (usually the lowest tested concentration that kills the bacteria rather than only halting them) was found to be 46.2 µM with Staphylococcus aureus [18], 46.2 µM (≈ 15.6 µg/mL) in the assay on Staphylococcus aureus [19] and 46.2 µM (≈ 15.6 µg/mL) in the assay with Staphylococcus aureus [20]. In the case of `C[C@H]1COc2c(N3CCN(C)CC3)c(F)cc3c(=O)c(C(=O)O)cn1c23.C[C@H]1COc2c(N3CCN(C)CC3)c(F)cc3c(=O)c(C(=O)O)cn1c23.O` [LEVOFLOXACIN], the MIC with Staphylococcus aureus [13] turned out to be 0.125 µg/mL. In the case of `O=C(O)c1ccc(-n2cc(/C=N/N(c3ccccc3)c3ccccc3)c(-c3cc4ccccc4oc3=O)n2)cc1`, the MIC in the assay on Staphylococcus aureus [21] stood at 3.12 µg/mL (≈ 5.93 µM). Take `COc1ccc(-n2nc(C(C)(C)C)cc2NC(=O)c2cccc(Cl)c2)cc1`: the MIC with Staphylococcus aureus [4] was determined as 3.12 µg/mL (≈ 8.13 µM).

Take `Cc1nn(-c2ccccc2)c(Cl)c1/C=C/c1ccc([N+](=O)[O-])cc1[N+](=O)[O-]`: in the assay on Staphylococcus aureus [16], the MIC was 25 µg/mL (≈ 65 µM). Take `COc1cc(/C=C/c2cc(/C=C/c3ccc(OCC(=O)N[C@@H](C)c4ccccc4)c(OC)c3)[nH]n2)ccc1OCC(=O)N[C@@H](C)c1ccccc1`: the MIC in the assay on Staphylococcus aureus [12] was found to be 10 µM (≈ 6.87 µg/mL).
